Test results as given in patent publication US8435994B2, “Substituted [1,2,4]triazolo[4,3-alpha]quinoxalines as adenosine A2a receptor antagonists” (Merck Sharp & Dohme Corp., priority 2009, dated 2013).

The compounds below were run against T1, Human A2a Adenosine Receptor (Homo sapiens, UniProt P29274) (assay: Human Adenosine A2a Receptor Competition Binding Assay ([3H]-SCH 58261 displacement)). Conditions: Table I; human A2a membranes, [3H]-SCH 58261 0.5 nM, Cheng-Prusoff; read-out: Activity (Ki).
T1 construct: purchased Receptor Biology, Inc., Beltsville, Md; RB-HA2a
Description: Human Adenosine A2a Receptor Competition Binding Assay Protocol
A2a: Human A2a Adenosine Receptor membranes, Catalog #RB-HA2a, Receptor Biology, Inc., Beltsville, Md. Dilute to 17 μg/100 μl in membrane dilution buffer (see below).
Membrane dilution buffer: Dulbecco's Phosphate Buffered Saline (Gibco/BRL)+ 10 mM MgCl2.
Compound Dilution Buffer: Dulbecco's Phosphate Buffered Saline (Gibco/BRL)+10 mM MgCl2 supplemented with 1.6 mg/ml methyl cellulose and 16% DMSO. Prepared fresh daily.
A2a: [3H]-SCH 58261 [7-(2-phenylethyl)-5-amino-2-(2-furyl)-pyrazolo-[4,3-e]-1,2,4-triazolo[1,5-c]pyrimidine], custom synthesis, Amersham Pharmacia Biotech, Piscataway, N.J. Stock is prepared at 1 nM in membrane dilution buffer. Final assay concentration is 0.5 nM. SCH-58261 is discussed in Zocchi et al., J Pharmacol Exp Ther. 276(2):398-404 (1996).
A2a: To determine non-specific binding, add 100 nM CGS 15923 (RBI, Natick, Mass.). Working stock is prepared at 400 nM in compound dilution buffer.
Prepare 1 mM stock solutions of compounds in 100% DMSO. Dilute in compound dilution buffer. Test at 10 concentrations ranging from 3 μM to 30 μM. Prepare working solutions at 4× final concentration in compound dilution buffer.
Perform assays in deep well 96 well plates. Total assay volume is 200 μl. Add 50 μl compound dilution buffer (total ligand binding) or 50 μl […] working solution (A2a non-specific binding) or 50 μl of drug working solution.

T1 sequence (P29274 whole entry): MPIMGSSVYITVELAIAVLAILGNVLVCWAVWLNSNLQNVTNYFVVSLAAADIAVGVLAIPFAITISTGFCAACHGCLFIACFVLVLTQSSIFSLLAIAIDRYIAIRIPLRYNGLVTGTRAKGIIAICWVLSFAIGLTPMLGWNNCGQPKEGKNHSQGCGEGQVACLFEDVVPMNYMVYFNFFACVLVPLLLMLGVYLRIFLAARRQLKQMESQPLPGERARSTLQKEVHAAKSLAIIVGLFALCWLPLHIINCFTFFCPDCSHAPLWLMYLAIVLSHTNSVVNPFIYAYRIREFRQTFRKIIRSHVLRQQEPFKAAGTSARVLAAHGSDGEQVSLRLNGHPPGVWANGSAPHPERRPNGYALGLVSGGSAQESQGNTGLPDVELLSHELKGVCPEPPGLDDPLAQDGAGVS

| Structure (SMILES) | Ki [nM] |
| --- | --- |
| Nc1nc2cc(F)c(F)cc2n2c(=O)n(Cc3c(F)cccc3F)nc12 [Compound 1] | 0.4 |
| Nc1nc2ccccc2n2c(=O)n(Cc3ccccc3)nc12 [Compound 2] | 0.7 |
| Cc1cccc2c1nc(N)c1nn(Cc3ccccc3)c(=O)n12 [Compound 3] | 0.6 |
| Nc1ccccc1Cn1nc2c(N)nc3ccccc3n2c1=O [Compound 5] | 0.7 |
| Nc1nc2ccc(F)cc2n2c(=O)n(Cc3ccccc3)nc12 [Compound 6] | 0.9 |
| Nc1nc2ccc(F)cc2n2c(=O)n(Cc3c(F)cccc3F)nc12 [Compound 7] | 0.7 |
| Nc1nc2ccccc2n2c(=O)n(Cc3cccc(F)c3F)nc12 [Compound 8] | 1 |
| Nc1nc2ccccc2n2c(=O)n(Cc3c(F)cccc3F)nc12 [Compound 9] | 1 |
| Nc1nc2ccc(F)cc2n2c(=O)n(Cc3ccc(F)cc3)nc12 [Compound 10] | 1 |
| Nc1nc2ccccc2n2c(=O)n(Cc3ccccc3CO)nc12 [Compound 11] | 1.2 |
| Nc1nc2ccc(F)cc2n2c(=O)n(Cc3c(F)cc(F)cc3F)nc12 [Compound 12] | 1 |
| Nc1nc2ccccc2n2c(=O)n(Cc3c(F)cc(F)cc3F)nc12 [Compound 13] | 1.4 |
| N#Cc1ccccc1Cn1nc2c(N)nc3ccccc3n2c1=O [Compound 14] | 1.2 |
| Nc1nc2cc([N+](=O)[O-])ccc2n2c(=O)n(Cc3ccccc3)nc12 [Compound 15] | 1.4 |
| Nc1nc2cc(Cl)c(Cl)cc2n2c(=O)n(Cc3ccccc3)nc12 [Compound 16] | 1.4 |
| Nc1nc2cc(F)c(F)cc2n2c(=O)n(Cc3ccccc3)nc12 [Compound 17] | 1.4 |
| Nc1nc2ccccc2n2c(=O)n(Cc3ccc(F)cc3)nc12 [Compound 18] | 1.9 |
| COC(=O)c1ccc2c(c1)nc(N)c1nn(Cc3ccccc3)c(=O)n12 [Compound 19] | 1.7 |
| Nc1nc2cc(C(F)(F)F)ccc2n2c(=O)n(Cc3c(F)cccc3F)nc12 [Compound 20] | 1.8 |
| Nc1nc2ccccc2n2c(=O)n(Cc3ccccc3C(F)(F)F)nc12 [Compound 21] | 1.8 |
| Nc1nc2ccc(F)cc2n2c(=O)n(Cc3c(F)cccc3C(F)(F)F)nc12 [Compound 22] | 2.2 |
| CC(C)(O)c1ccccc1Cn1nc2c(N)nc3ccccc3n2c1=O [Compound 23] | 2 |
| Nc1nc2cc(F)c(F)cc2n2c(=O)n(Cc3c(F)cc(F)cc3F)nc12 [Compound 24] | 2.8 |
| Nc1nc2cc(C=O)ccc2n2c(=O)n(Cc3ccccc3)nc12 [Compound 25] | 2.6 |
| COC(=O)c1ccccc1Cn1nc2c(N)nc3ccccc3n2c1=O [Compound 26] | 1.9 |
| Nc1nc2ccccc2n2c(=O)n(Cc3c(F)cccc3C(F)(F)F)nc12 [Compound 27] | 2.5 |
| Nc1nc2ccc(Cl)cc2n2c(=O)n(Cc3ccccc3)nc12 [Compound 28] | 2.7 |

| Structure (SMILES) | Ki [nM] |
| --- | --- |
| Nc1nc2ccccc2n2c(=O)n(Cc3ccccc3[N+](=O)[O-])nc12 [Compound 29] | 3.2 |
| Nc1nc2ccccc2n2c(=O)n(Cc3c(Cl)cccc3Cl)nc12 [Compound 30] | 3.2 |
| CC(=O)c1ccc2c(c1)nc(N)c1nn(Cc3ccccc3)c(=O)n12 [Compound 31] | 3 |
| N#C/N=c1\n(Cc2ccccc2)nc2c(N)nc3ccccc3n12 [Compound 32] | 4.7 |
| Nc1ccc2c(c1)nc(N)c1nn(Cc3ccccc3)c(=O)n12 [Compound 33] | 5.6 |
| N=c1n(Cc2ccccc2)nc2c(N)nc3ccccc3n12 [Compound 35] | 6 |
| Cc1cccc2nc(N)c3nn(Cc4ccccc4)c(=O)n3c12 [Compound 36] | 7.1 |
| Nc1nc2ccccc2n2c(=O)n(Cc3cc(F)cc(F)c3)nc12 [Compound 37] | 7.4 |
| CC(=O)Nc1ccccc1Cn1nc2c(N)nc3ccccc3n2c1=O [Compound 38] | 7.4 |
| CN(C)/C=N\c1ccccc1Cn1nc2c(N)nc3ccccc3n2c1=O [Compound 39] | 8.2 |
| Nc1nc2cc(CO)ccc2n2c(=O)n(Cc3ccccc3)nc12 [Compound 40] | 8.6 |
| CS(=O)(=O)c1ccccc1Cn1nc2c(N)nc3ccccc3n2c1=O [Compound 41] | 8.3 |
| Nc1nc2ccc(C(F)(F)F)cc2n2c(=O)n(Cc3c(F)cccc3F)nc12 [Compound 42] | 10.2 |
| COc1ccc2nc(N)c3nn(Cc4ccccc4)c(=O)n3c2c1 [Compound 43] | 12.1 |
| COc1cccc(OC)c1Cn1nc2c(N)nc3ccccc3n2c1=O [Compound 44] | 14 |
| Nc1nc2ccccc2n2c(=O)n(CCc3ccccc3)nc12 [Compound 45] | 29.2 |
| CCCCNc1nc2ccc(F)cc2n2c(=O)n(Cc3ccccc3)nc12 [Compound 46] | 28.9 |
| Nc1nc2ccccc2n2c(=O)n(CC3CC3)nc12 [Compound 47] | 32.3 |
| CN(C)C(=O)c1ccccc1Cn1nc2c(N)nc3ccccc3n2c1=O [Compound 48] | 28.9 |
| Nc1nc2cc(CO)ccc2n2c(=O)n(Cc3ccccc3F)nc12 [Compound 49] | 38.4 |
| Nc1nc2cccnc2n2c(=O)n(Cc3ccccc3)nc12 [Compound 50] | 46.3 |
| COc1ccc2nc(N)c3nn(Cc4ccccc4C(F)(F)F)c(=O)n3c2c1 [Compound 51] | 51.5 |
| CC(O)c1ccc2c(c1)nc(N)c1nn(Cc3ccccc3)c(=O)n12 (stereo not drawn) [Compound 52] | 54.9 |
| Nc1nc2ccc(CO)cc2n2c(=O)n(Cc3ccccc3)nc12 [Compound 53] | 60 |
| Nc1nc2ccccc2n2c(=O)n(Cc3ccccc3C(=O)N3CCOCC3)nc12 [Compound 54] | 66.4 |
| COC(=O)c1ccc2nc(N)c3nn(Cc4ccccc4)c(=O)n3c2c1 [Compound 55] | 70.8 |
| CC(c1ccccc1)n1nc2c(N)nc3ccccc3n2c1=O (stereo not drawn) [Compound 56] | 91.1 |

Same assay, conditions: Table II; human A2a membranes, [3H]-SCH 58261 0.5 nM, Cheng-Prusoff; read-out: Activity (Ki in nM)

| Structure (SMILES) | Ki [nM] |
| --- | --- |
| Nc1nc2ccccc2n2cc(Cc3ccccc3)nc12 [Compound 57] | 4.1 |
| Nc1nc2ccccc2n2cc(-c3ccccc3)nc12 [Compound 58] | 57 |
| Nc1nc2ccccc2n2cc(C(=O)c3ccccc3)nc12 [Compound 59] | 42 |
| Nc1nc2ccccc2n2cc(C(O)c3ccccc3)nc12 (stereo not drawn) [Compound 60] | 29 |

Same assay, conditions: assay of Example 25; read-out: Ki value for the adenosine A2a receptor

| Structure (SMILES) | Ki [nM] |
| --- | --- |
| Nc1nc2ccccc2n2nc(Cc3ccccc3)nc12 [Compound 61] | 0.7 |
| Nc1nc2ccccc2c2nc(Cc3ccccc3)cn12 [Compound 62] | 0.7 |
